Reference: PubChem BioAssay (NCI)
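Briefly, cells in 96-well plates were exposed to five compound concentrations for 48 h, and endpoints were estimated by linear interpolation. TGI: concentration producing complete growth inhibition.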

Tests used:
Experiment in all cases: inhibition of tumour cell growth, NCI panel, 48 h
U251 CNS = test system: U251 CNS
SK-MEL-5 melanoma = test system: SK-MEL-5 melanoma
SN12C renal = test system: SN12C renal
K-562 leukemia = test system: K-562 leukemia
OVCAR-4 ovarian = test system: OVCAR-4 ovarian
HOP-62 NSCLC = test system: HOP-62 NSCLC
HCT-15 colon = test system: HCT-15 colon
HOP-92 NSCLC = test system: HOP-92 NSCLC
LOX IMVI melanoma = test system: LOX IMVI melanoma

COc1ccc(/C=C\c2cc(OC)c(OC(C)=O)c(OC)c2)cc1
TGI (U251 CNS): 23.1 µM | TGI (SK-MEL-5 melanoma): 20.5 µM | TGI (SN12C renal): 30.8 µM | TGI (K-562 leukemia): 31 µM | TGI (OVCAR-4 ovarian): > 100 µM | TGI (HOP-62 NSCLC): 85.6 µM | TGI (HCT-15 colon): 97 µM | TGI (HOP-92 NSCLC): 68.3 µM

O=c1c2ccc(Br)cc2nc(-c2ccccc2)n1NC1OC(CO)C(O)C(O)C1O (stereo unspecified)
TGI (U251 CNS): > 100 µM | TGI (SK-MEL-5 melanoma): > 100 µM | TGI (SN12C renal): > 100 µM | TGI (K-562 leukemia): > 100 µM | TGI (OVCAR-4 ovarian): > 100 µM | TGI (HOP-62 NSCLC): > 100 µM | TGI (HCT-15 colon): > 100 µM | TGI (HOP-92 NSCLC): > 100 µM

O=C(NCCOCCO)c1ccc(O)cc1
TGI (U251 CNS): > 100 µM | TGI (SK-MEL-5 melanoma): > 100 µM | TGI (SN12C renal): > 100 µM | TGI (K-562 leukemia): > 100 µM | TGI (HOP-62 NSCLC): > 100 µM | TGI (LOX IMVI melanoma): > 100 µM | TGI (HCT-15 colon): > 100 µM | TGI (HOP-92 NSCLC): > 100 µM

Cc1cc2c(C=O)[nH]nc2c(C#N)c1C
TGI (U251 CNS): > 100 µM | TGI (SK-MEL-5 melanoma): > 100 µM | TGI (SN12C renal): 78.6 µM | TGI (K-562 leukemia): > 100 µM | TGI (OVCAR-4 ovarian): > 100 µM | TGI (HOP-62 NSCLC): > 100 µM | TGI (LOX IMVI melanoma): > 100 µM | TGI (HCT-15 colon): > 100 µM | TGI (HOP-92 NSCLC): 99.4 µM

CCC1(O)CC(c2ccccc2)N(C)C(c2ccccc2)C1 (stereo unspecified)
TGI (U251 CNS): > 100 µM | TGI (SK-MEL-5 melanoma): > 100 µM | TGI (SN12C renal): > 100 µM | TGI (K-562 leukemia): > 100 µM | TGI (OVCAR-4 ovarian): > 100 µM | TGI (HOP-62 NSCLC): > 100 µM | TGI (LOX IMVI melanoma): > 100 µM | TGI (HCT-15 colon): > 100 µM | TGI (HOP-92 NSCLC): > 100 µM

CCOC(=O)/C(C#N)=C/c1[nH]c(C)c(C)c1C
TGI (U251 CNS): > 100 µM | TGI (SK-MEL-5 melanoma): > 100 µM | TGI (SN12C renal): > 100 µM | TGI (K-562 leukemia): > 100 µM | TGI (OVCAR-4 ovarian): > 100 µM | TGI (HOP-62 NSCLC): > 100 µM | TGI (LOX IMVI melanoma): > 100 µM | TGI (HCT-15 colon): > 100 µM | TGI (HOP-92 NSCLC): > 100 µM

CCN(CC)[C@@H]1c2cc3c(cc2C(c2cc(OC)c(O)c(OC)c2)C2C(=O)CO[C@@H]21)OCO3 (stereo partly specified)
TGI (U251 CNS): > 100 µM | TGI (SK-MEL-5 melanoma): > 100 µM | TGI (SN12C renal): > 100 µM | TGI (K-562 leukemia): > 100 µM | TGI (OVCAR-4 ovarian): > 100 µM | TGI (HOP-62 NSCLC): > 100 µM | TGI (LOX IMVI melanoma): > 100 µM | TGI (HCT-15 colon): > 100 µM | TGI (HOP-92 NSCLC): > 100 µM

CC(=O)c1ccc(-c2ccc(C(C)=O)s2)s1
TGI (U251 CNS): > 100 µM | TGI (SK-MEL-5 melanoma): > 100 µM | TGI (SN12C renal): > 100 µM | TGI (K-562 leukemia): > 100 µM | TGI (OVCAR-4 ovarian): > 100 µM | TGI (HOP-62 NSCLC): > 100 µM | TGI (LOX IMVI melanoma): > 100 µM | TGI (HCT-15 colon): > 100 µM | TGI (HOP-92 NSCLC): > 100 µM

C[C@]12CC[C@H](O)CC1CCC[C@@H]2O (stereo partly specified)
TGI (U251 CNS): > 100 µM | TGI (SK-MEL-5 melanoma): > 100 µM | TGI (SN12C renal): > 100 µM | TGI (K-562 leukemia): > 100 µM | TGI (OVCAR-4 ovarian): > 100 µM | TGI (HOP-62 NSCLC): > 100 µM | TGI (LOX IMVI melanoma): > 100 µM | TGI (HCT-15 colon): > 100 µM | TGI (HOP-92 NSCLC): > 100 µM

C=C1[C@@H]2CCC(C)(C)[C@H]1CCC(=O)[C@@H]2C(=O)OC
TGI (U251 CNS): > 100 µM | TGI (SK-MEL-5 melanoma): > 100 µM | TGI (SN12C renal): > 100 µM | TGI (K-562 leukemia): > 100 µM | TGI (OVCAR-4 ovarian): > 100 µM | TGI (HOP-62 NSCLC): > 100 µM | TGI (LOX IMVI melanoma): > 100 µM | TGI (HCT-15 colon): > 100 µM

OCC1C2C=CC(O2)[C@H]1CO (stereo partly specified)
TGI (U251 CNS): > 100 µM | TGI (SK-MEL-5 melanoma): > 100 µM | TGI (SN12C renal): > 100 µM | TGI (OVCAR-4 ovarian): > 100 µM | TGI (HOP-62 NSCLC): > 100 µM | TGI (LOX IMVI melanoma): > 100 µM | TGI (HCT-15 colon): > 100 µM | TGI (HOP-92 NSCLC): > 100 µM

CC12CCC(C)(c3cc(O)c(O)cc31)c1cc(O)c(O)cc12
TGI (SK-MEL-5 melanoma): 36.4 µM | TGI (SN12C renal): 48.6 µM | TGI (K-562 leukemia): 29.5 µM | TGI (OVCAR-4 ovarian): 28.7 µM | TGI (HOP-62 NSCLC): 67.8 µM | TGI (LOX IMVI melanoma): 35.4 µM | TGI (HCT-15 colon): 29.3 µM | TGI (HOP-92 NSCLC): 25.4 µM

COC(=O)C1=CCS(=O)(=O)C1
TGI (SK-MEL-5 melanoma): > 100 µM | TGI (SN12C renal): > 100 µM | TGI (K-562 leukemia): > 100 µM | TGI (OVCAR-4 ovarian): > 100 µM | TGI (HOP-62 NSCLC): > 100 µM | TGI (LOX IMVI melanoma): > 100 µM | TGI (HCT-15 colon): > 100 µM | TGI (HOP-92 NSCLC): > 100 µM

CC(=O)Oc1cc(OC(C)=O)c(OC(C)=O)c2c1CC1C(=O)C3(CCc4ccccc43)C(=O)C1C2 (stereo unspecified)
TGI (U251 CNS): 29.2 µM | TGI (SN12C renal): 31 µM | TGI (K-562 leukemia): 28.1 µM | TGI (OVCAR-4 ovarian): 24.1 µM | TGI (HOP-62 NSCLC): 50.8 µM | TGI (LOX IMVI melanoma): 26.2 µM | TGI (HCT-15 colon): 39.5 µM | TGI (HOP-92 NSCLC): > 100 µM

NCCCSCC(=O)O
TGI (U251 CNS): > 100 µM | TGI (SK-MEL-5 melanoma): > 100 µM | TGI (SN12C renal): > 100 µM | TGI (K-562 leukemia): > 100 µM | TGI (OVCAR-4 ovarian): > 100 µM | TGI (HCT-15 colon): > 100 µM | TGI (HOP-92 NSCLC): > 100 µM

O=C(c1ccccc1)C(c1ccccc1)C1(O)C(=O)Nc2ccc(Br)cc21 (stereo unspecified)
TGI (U251 CNS): > 100 µM | TGI (SN12C renal): > 100 µM | TGI (K-562 leukemia): 80.8 µM | TGI (OVCAR-4 ovarian): > 100 µM | TGI (HOP-62 NSCLC): > 100 µM | TGI (HCT-15 colon): > 100 µM | TGI (HOP-92 NSCLC): > 100 µM

Cc1ccc(Sc2cc([N+](=O)[O-])cc(Sc3ccc(C)cc3)c2Sc2ccc(C)cc2)cc1
TGI (U251 CNS): > 100 µM | TGI (SK-MEL-5 melanoma): > 100 µM | TGI (SN12C renal): > 100 µM | TGI (K-562 leukemia): > 100 µM | TGI (HOP-62 NSCLC): > 100 µM | TGI (LOX IMVI melanoma): > 100 µM | TGI (HCT-15 colon): > 100 µM

O=C1CCC(=O)C12CCc1ccccc12
TGI (U251 CNS): > 100 µM | TGI (SN12C renal): > 100 µM | TGI (OVCAR-4 ovarian): > 100 µM | TGI (HOP-62 NSCLC): > 100 µM | TGI (LOX IMVI melanoma): > 100 µM | TGI (HCT-15 colon): > 100 µM | TGI (HOP-92 NSCLC): > 100 µM

O=C1C2Cc3ccccc3CN2C(=O)N1CCN1CCOCC1 (stereo unspecified)
TGI (U251 CNS): > 100 µM | TGI (SK-MEL-5 melanoma): > 100 µM | TGI (SN12C renal): > 100 µM | TGI (K-562 leukemia): > 100 µM | TGI (OVCAR-4 ovarian): > 100 µM | TGI (HOP-62 NSCLC): > 100 µM | TGI (LOX IMVI melanoma): > 100 µM | TGI (HCT-15 colon): > 100 µM

O=C1OC(/C=C/c2ccccc2)C(=O)C1=O (stereo unspecified)
TGI (U251 CNS): > 100 µM | TGI (K-562 leukemia): > 100 µM | TGI (OVCAR-4 ovarian): > 100 µM | TGI (HOP-62 NSCLC): > 100 µM | TGI (HCT-15 colon): > 100 µM | TGI (HOP-92 NSCLC): > 100 µM

Cn1c(=O)c2nc3sc4ccccc4c(=N)n3c2n(C)c1=O
TGI (SK-MEL-5 melanoma): > 100 µM | TGI (SN12C renal): > 100 µM | TGI (K-562 leukemia): > 100 µM | TGI (OVCAR-4 ovarian): > 100 µM | TGI (HOP-62 NSCLC): > 100 µM | TGI (LOX IMVI melanoma): > 100 µM | TGI (HOP-92 NSCLC): > 100 µM

Fc1cccc(C2SCc3nc4ccccc4n32)c1 (stereo unspecified)
TGI (SK-MEL-5 melanoma): 29.4 µM | TGI (SN12C renal): > 100 µM | TGI (K-562 leukemia): > 100 µM | TGI (HOP-92 NSCLC): 55.7 µM
